Reference: patent US20250361526A1, “[…] CYTOMEGALOVIRUS-DERIVED TOOL VIRUS, METHOD OF PRODUCING THE SAME AND APPLICATIONS THEREOF” (WUHAN INSTITUTE OF VIROLOGY, CHINESE ACADEMY OF SCIENCES, priority 2022, published 2025)

System: MCMV
Test: In vivo challenge of newborn ICR mice with K181-Nluc/Green, live and organ imaging
Procedure: To verify whether recombinant virus K181-Nluc/Green can be applied to evaluate potential drugs, neutralizing antibodies, vaccines, etc. against CMV in vivo. The inventors of the present invention carried out in vivo challenge test with ICR mice in the Animal Biosafety Laboratory (ABSL-2). […] Twelve newborn ICR mice were divided into three groups: control group (PBS), placebo group (DMSO) and ganciclovir (GCV) treatment group. By intracerebroventricular injection (I.C.), 1 μl (4×10^5 PFU) K181-Nluc/Green virus solution was injected into the lateral ventricles of newborn mice (P0) to establish the brain infection model of MCMV virus. After 1 day of challenge, 50 mg/kg GCV was given to mice every day until the 7th day after infection, and the Nanoluc substrate (Cat. #N1120, Promega, USA) was intraperitoneally injected on the 1st, 3rd, 5th, 7th, 9th, 11th and 14th days after infection.
In addition, seven days after the mice were infected, one mouse was randomly selected from the placebo (DMSO) group and the GCV treatment group, and Nanoluc substrate was injected intraperitoneally. […] The organs and tissues of mice were taken, and the content of MCMV virus in organs and tissues of mice in different groups was evaluated by fluorescence activity.

Structure (SMILES): Nc1nc(O)c2ncn(COC(CO)CO)c2n1 [GCV, ganciclovir]
- Nluc or GFP signals in different organs of mice (I.C. 4×10^5 PFU K181-Nluc/Green, 50 mg/kg GCV every day, 7 days after infection (FIGS. 14 and 15)): no detection of apparent Nluc or GFP signals
- MCMV replication and spreading in vivo (I.C. K181-Nluc/Green, 50 mg/kg GCV every day until the 7th day): effectively reduce the MCMV replication and spreading in vivo
